Data reported in US6939963B2, “Method for the preparation of selectively-substituted corroles and new substituted corroles” (Technion Research and Development Foundation Ltd., priority 2001, dated 2005).

Columns and labels:
[1] = Solubility in water of compound 3 and its metal complexes; format: physicochemical
Excerpt: (§1) The most variable compounds of the invention are 2 and 3, because of the easy substitution of the chloride in the —SO2Cl functions of 2 and the large variety of metal ions that can be inserted into either 2 or 3. In the present example, metallation of compound 3 is described. Generally, the same methods that were developed for corrole 1 worked for 3 as well: GaCl3/pyridine for obtaining compound 15, the gallium(III) complex of 3; Mn(OAc)2/DMF for obtaining compound 16, the manganese(III) complex of 3; Co(OAc)2/PPh3/EtOH for obtaining compound 17, the (triphenylphosphine)cobalt(III) complex of 3; SnCl2.2H2O/DMF for obtaining compound 18, the (chloro)tin(IV) complex of 3; and CrCl2/pyridine for obtaining compound 19, the (bis-pyridine)chromium(III) complex of 3.

[2] = Aggregation in solution judged from linear plots of UV-vis absorbance (ε determination); format: physicochemical; details: low concentrations relevant for UV-vis measurements, 10^−4-10^−6 M
Excerpt: as §1

**Q.** With `O=S(=O)(O)C1=Cc2nc1c(-c1c(F)c(F)c(F)c(F)c1F)c1ccc([nH]1)c(-c1c(F)c(F)c(F)c(F)c1F)c1ccc([nH]1)c(-c1c(F)c(F)c(F)c(F)c1F)c1cc(S(=O)(=O)O)c2[nH]1` [Compound 3, 5,10,15-Tris(pentafluorophenyl)-2,17-bis(sulfonic acid)-corrole] as the molecule, how does the solubility in water [1] read?
**A.** The solubility in water was “soluble in water”.

**Q.** And the “aggregation (linear plots obtained for elucidating the ε values)” value [2]?
**A.** Its value is “absence of aggregation”.
